What was measured:
Format in all cases: in vivo
Leptosphaeria nodorum = test: Fungicidal activity: wheat glume blotch (LEPTNO); settings: Parastagonospora nodorum, 24 h, 1 Day Protectant, read-out: Disease Control LEPTNO 1 DP
Protocol: Technical grades of materials were dissolved in acetone, which were then mixed with nine volumes of water containing 110 ppm Triton X-100. The fungicide solutions were applied onto wheat seedlings using an automated booth sprayer to run-off. All sprayed plants were allowed to air dry prior to further handling. Wheat plants (variety Yuma) were grown from seed in a greenhouse in 50% mineral soil/50% soil-less Metro mix until the first leaf was fully emerged, with 7-10 seedlings per pot. These plants were inoculated with an aqueous spore suspension of Septoria tritici either prior to or after fungicide treatments. After inoculation the plants were kept in 100% relative humidity (one day in a dark dew chamber followed by two to three days in a lighted dew chamber at 20° C.) to permit spores to germinate and infect the leaf. The plants were then transferred to a greenhouse set at 20° C. for disease to develop. When disease symptoms were fully expressed on the 1st leaves of untreated plants, infection levels were assessed on a scale of 0 to 100 percent disease severity. Percent disease control was calculated using the ratio of disease severity on treated plants relative to untreated plants. Evaluation of Fungicidal Activity: Wheat Glume Blotch (Leptosphaeria nodorum; Bayer Code […]) Wheat plants (variety Yuma) were grown from seed in a greenhouse in 50% mineral soil/50% soil-less Metro mix until the first leaf was fully emerged, with 7-10 seedlings per pot. These plants were inoculated with an aqueous spore suspension of Leptosphaeria nodorum 24 hr after fungicide treatments. After inoculation the plants were kept in 100% relative humidity (one day in a dark dew chamber followed by two days in a lighted dew chamber at 20° C.) to permit spores to germinate and infect the leaf. The plants were then transferred to a greenhouse set at 20° C. for disease to develop. Fungicide formulation, application and disease assessment followed the procedures as described in the Example A.

Cercospora beticola = test: Fungicidal activity: leaf spot of sugar beets (CERCBE); settings: 24 h, 1 Day Protectant, sugar beet, read-out: Disease Control CERCBE 1DP
Protocol: Technical grades of materials were dissolved in acetone, which were then mixed with nine volumes of water containing 110 ppm Triton X-100. The fungicide solutions were applied onto wheat seedlings using an automated booth sprayer to run-off. All sprayed plants were allowed to air dry prior to further handling. Wheat plants (variety Yuma) were grown from seed in a greenhouse in 50% mineral soil/50% soil-less Metro mix until the first leaf was fully emerged, with 7-10 seedlings per pot. These plants were inoculated with an aqueous spore suspension of Septoria tritici either prior to or after fungicide treatments. After inoculation the plants were kept in 100% relative humidity (one day in a dark dew chamber followed by two to three days in a lighted dew chamber at 20° C.) to permit spores to germinate and infect the leaf. The plants were then transferred to a greenhouse set at 20° C. for disease to develop. When disease symptoms were fully expressed on the 1st leaves of untreated plants, infection levels were assessed on a scale of 0 to 100 percent disease severity. Percent disease control was calculated using the ratio of disease severity on treated plants relative to untreated plants. Evaluation of Fungicidal Activity: Leaf Spot of Sugar Beets (Cercospora beticola; Bayer Code CERCBE) Sugar beet plants (variety HH88) were grown in soil-less Metro mix and trimmed regularly to maintain a uniform plant size prior to test. Plants were inoculated with a spore suspension 24 hr after fungicide treatments. Inoculated plants were kept in a dew chamber at 22° C. for 48 hr then incubated in a greenhouse set at 24° C. under a clear plastic hood with bottom ventilation until disease symptoms were fully expressed. Fungicide formulation, application and disease assessment on the sprayed leaves followed the procedures as described in the Example A.

[1] = tested on: Blumeria graminis f.sp. hordei; synonym: Erysiphe graminis f.sp. hordei; test: Fungicidal activity: barley powdery mildew (ERYSGH); settings: 24 h, 1 Day Protectant, read-out: Disease Control ERYSGH 1DP
Protocol: Technical grades of materials were dissolved in acetone, which were then mixed with nine volumes of water containing 110 ppm Triton X-100. The fungicide solutions were applied onto wheat seedlings using an automated booth sprayer to run-off. All sprayed plants were allowed to air dry prior to further handling. Wheat plants (variety Yuma) were grown from seed in a greenhouse in 50% mineral soil/50% soil-less Metro mix until the first leaf was fully emerged, with 7-10 seedlings per pot. These plants were inoculated with an aqueous spore suspension of Septoria tritici either prior to or after fungicide treatments. After inoculation the plants were kept in 100% relative humidity (one day in a dark dew chamber followed by two to three days in a lighted dew chamber at 20° C.) to permit spores to germinate and infect the leaf. The plants were then transferred to a greenhouse set at 20° C. for disease to develop. When disease symptoms were fully expressed on the 1st leaves of untreated plants, infection levels were assessed on a scale of 0 to 100 percent disease severity. Percent disease control was calculated using the ratio of disease severity on treated plants relative to untreated plants. Evaluation of Fungicidal Activity: Barley Powdery Mildew (Blumeria graminis f.sp. hordei; Synonym: Erysiphe graminis f.sp. hordei; Bayer Code […]) Barley seedlings (variety Harrington) were propagated in soil-less Metro mix, with each pot having 8 to 12 plants, and used in the test when first leaf was fully emerged. Test plants were inoculated by dusting with infected stock plants 24 hr after fungicide treatments. After inoculation the plants were kept in a greenhouse set at 20° C. for disease to develop. Fungicide formulation, application and disease assessment on the sprayed leaves followed the procedures as described in the Example A.

Alternaria solani = test: Fungicidal activity: tomato early blight (ALTESO); settings: 24 h, 1 Day Protectant, read-out: Disease Control ALTESO 1DP
Protocol: Technical grades of materials were dissolved in acetone, which were then mixed with nine volumes of water containing 110 ppm Triton X-100. The fungicide solutions were applied onto wheat seedlings using an automated booth sprayer to run-off. All sprayed plants were allowed to air dry prior to further handling. Wheat plants (variety Yuma) were grown from seed in a greenhouse in 50% mineral soil/50% soil-less Metro mix until the first leaf was fully emerged, with 7-10 seedlings per pot. These plants were inoculated with an aqueous spore suspension of Septoria tritici either prior to or after fungicide treatments. After inoculation the plants were kept in 100% relative humidity (one day in a dark dew chamber followed by two to three days in a lighted dew chamber at 20° C.) to permit spores to germinate and infect the leaf. The plants were then transferred to a greenhouse set at 20° C. for disease to develop. When disease symptoms were fully expressed on the 1st leaves of untreated plants, infection levels were assessed on a scale of 0 to 100 percent disease severity. Percent disease control was calculated using the ratio of disease severity on treated plants relative to untreated plants. Evaluation of Fungicidal Activity: Tomato Early Blight (Alternaria solani; Bayer Code […]) Tomato plants (variety Outdoor girl) were propagated in soil-less Metro mix, with each pot having one plant, and used when 12 to 14 days old. Test plants were inoculated with an aqueous spore suspension of Alternaria solani 24 hr after fungicide treatments. After inoculation the plants were kept in 100% relative humidity (one day in a dark dew chamber followed by two to three days in a lighted dew chamber at 20° C.) to permit spores to germinate and infect the leaf. The plants were then transferred to a growth room at 22° C. for disease to develop. Fungicide formulation, application and disease assessment on the sprayed leaves followed the procedures as described in the Example A.

Row | SMILES | pest or weed control at 100 ppm (Leptosphaeria nodorum) | pest or weed control at 100 ppm (Cercospora beticola) | pest or weed control at 100 ppm [1] | pest or weed control at 100 ppm (Alternaria solani)
1 | CCCCO[C@H]1COC[C@H](NC(=O)c2nccc(OC)c2OCOC(C)=O)C(=O)O[C@@H](C)[C@@H]1OCCOC [Compound 54] | 80 to 100% | 0 to 80% | 0 to 80% | 
2 | COc1ccnc(C(=O)N[C@H]2COC[C@H](OC)[C@@H](OC)[C@H](C)OC2=O)c1OCOC(C)=O [Compound 65] | 0 to 80% | 0 to 80% |  | 
3 | COc1ccnc(C(=O)N[C@H]2COC[C@H](OCCCc3ccccc3)[C@@H](OCCCc3ccccc3)[C@H](C)OC2=O)c1OCOC(C)=O [Compound 60] | 80 to 100% | 80 to 100% |  | 0 to 80%
4 | CCC(C)(C)O[C@H]1COC[C@H](NC(=O)c2nccc(OC)c2OCOC(C)=O)C(=O)O[C@@H](C)[C@@H]1OCC(C)C [Compound 78] | 80 to 100% | 0 to 80% | 0 to 80% | 0 to 80%
5 | COc1ccnc(C(=O)N[C@H]2COC[C@H](Oc3ccc(F)cc3)[C@@H](Oc3ccc(F)cc3)[C@H](C)OC2=O)c1OC(C)=O [Compound 229, 2-(((3S,7S,8S,9S)-7,8-bis(4-fluorophenoxy)-9-methyl-2-oxo-1,5-dioxonan-3-yl)carbamoyl)-4-methoxypyridin-3-yl acetate] | 80 to 100% | 80 to 100% | 0 to 80% | 0 to 80%
6 | COc1ccnc(C(=O)N[C@H]2COC[C@H](OCC(C)C)[C@@H](OC3CCCCC3)[C@H](C)OC2=O)c1OCOC(C)=O [Compound 77] | 80 to 100% | 80 to 100% | 0 to 80% | 0 to 80%
7 | COc1ccnc(C(=O)N[C@H]2COC[C@H](Oc3ccc(F)cc3)[C@@H](Oc3ccc(F)cc3)[C@H](C)OC2=O)c1OCOC(C)=O [Compound 231] | 80 to 100% | 0 to 80% | 0 to 80% | 0 to 80%
8 | COc1ccnc(C(=O)N[C@H]2COC[C@H](Oc3ccccc3)[C@@H](OCC(C)C)[C@H](C)OC2=O)c1OCOC(C)=O [Compound 86] | 80 to 100% | 80 to 100% | 0 to 80% | 80 to 100%
9 | COc1ccnc(C(=O)N[C@H]2COC[C@H](Oc3ccccc3)[C@@H](Oc3ccccc3)[C@H](C)OC2=O)c1OCOC(C)=O [Compound 84] | 80 to 100% | 80 to 100% | 0 to 80% | 0 to 80%
10 | COc1ccnc(C(=O)N[C@H]2COC[C@H](OCC(C)C)[C@@H](OCC(C)C)[C@H](C)OC2=O)c1OCOC(=O)C(C)C [Compound 2] |  | 0 to 80% | 80 to 100% | 
11 | CCCO[C@H]1COC[C@H](NC(=O)c2nccc(OC)c2OCOC(C)=O)C(=O)O[C@@H](C)[C@@H]1Oc1ccccc1 [Compound 221] |  | 80 to 100% |  | 
12 | COc1ccnc(C(=O)N[C@H]2COC[C@H](OCC(C)C)[C@@H](Oc3ccccc3)[C@H](C)OC2=O)c1OCOC(C)=O [Compound 85] | 80 to 100% | 80 to 100% | 0 to 80% | 0 to 80%
13 | COc1ccnc(C(=O)NC2COC[C@H](OCc3ccccc3)[C@@H](OCc3ccccc3)[C@H](C)OC2=O)c1OCOC(C)=O (some centres unmarked) [Compound 12] | 80 to 100% | 80 to 100% | 0 to 80% | 0 to 80%
14 | CCCO[C@H]1[C@H](C)OC(=O)[C@@H](NC(=O)c2nccc(OC)c2OCOC(C)=O)COC[C@@H]1Oc1ccccc1 [Compound 222] |  | 80 to 100% |  | 0 to 80%
15 | COc1ccnc(C(=O)N[C@H]2COC[C@H](OCCCC(F)(F)F)[C@@H](OCCCC(F)(F)F)[C@H](C)OC2=O)c1OCOC(C)=O [Compound 68] | 80 to 100% | 80 to 100% | 0 to 80% | 0 to 80%
16 | COc1ccnc(C(=O)N[C@H]2COC[C@H](OC(=O)C(C)C)[C@@H](OC(=O)C(C)C)[C@H](C)OC2=O)c1OCOC(C)=O [Compound 57] | 0 to 80% | 80 to 100% | 0 to 80% | 0 to 80%
17 | COc1ccnc(C(=O)N[C@H]2COC[C@H](OCC(C)C)[C@@H](OCC(C)C)[C@H](C)OC2=O)c1OCOC(C)=O [Compound 3, (2-((3S,7S,8S,9S)-7,8-diisobutoxy-9-methyl-2-oxo-1,5-dioxonan-3-ylcarbamoyl)-4-methoxypyridin-3-yloxy)methyl] | 80 to 100% | 80 to 100% | 80 to 100% | 0 to 80%
18 | CCCCO[C@H]1COC[C@H](NC(=O)c2nccc(OC)c2OCOC(C)=O)C(=O)O[C@@H](C)[C@@H]1OCC(F)F [Compound 55] | 80 to 100% | 80 to 100% |  | 

From US9144239B2, “Macrocyclic picolinamides as fungicides” (DOW AGROSCIENCES LLC, priority 2012, dated 2015)
